According to patent US9708336B2, “Metallo-beta-lactamase inhibitors” (priority 2014, dated 2017):
pIC50: −log10 of the molar value. Where two headings read alike, the source gives them in different places.

Assays:
[1] = biological target: IMP-1 (Serratia marcescens, UniProt P52699); experiment: biochemical; assay type: biochemical; details: read-out: IMP-1 IC50
[2] = biological target: NDM-1 (Klebsiella pneumoniae, UniProt C7C422); experiment: biochemical; assay type: biochemical; details: read-out: NDM-1 IC50
[3] = biological target: VIM-1 (Pseudomonas aeruginosa (strain ATCC 15692 / DSM 22644 / CIP 104116 / JCM 14847 / LMG 12228 / 1C / PRS 101 / PAO1), UniProt A0A0F7KYQ8); experiment: Enzyme activity: determination of IC50, fluorescence assay with CCF2-FA substrate (VIM-1); assay type: biochemical
[4] = system: Escherichia coli expressing NDM-1 (CLB30016); experiment: Antibiotic potentiation activity: synergistic concentration (MITC95) with imipenem, OD600 growth; assay type: cell-based; details: for Escherichia coli expressing NDM-1 (CLB 30016) MITC95: concentration giving 95% inhibition of bacterial growth
How it was run: (§1)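 Imipenem (4 μg/ml final; 1 μg/ml as an option) was combined with compound against isolates diluted 1:100 from saline suspensions into 1.1× CAMHB. Growth was assessed by absorbance at 22–24 h, 35 °C.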

[5] = system: Klebsiella pneumoniae expressing VIM-1 (IHMA599644); experiment: as above; assay type: cell-based; details: for Klebsiella pneumoniae expressing VIM-1 (IHMA 599644) MITC95: concentration giving 95% inhibition of bacterial growth
How it was run: as §1

[6] = system: Serratia marcescens expressing IMP-1 (CL5741); experiment: as above; assay type: cell-based; details: for Serratia marcescens expressing IMP-1 (CL5741) MITC95: concentration giving 95% inhibition of bacterial growth
How it was run: as §1

[7] = IMP-1 enzyme, CCF2-FA substrate
[8] = NDM-1 enzyme, CCF2-FA substrate
[9] = VIM-1 enzyme, CCF2-FA substrate, read-out: VIM-1 IC50
[10] = (CLB30016, NDM-1), 95% growth inhibition
[11] = Klebsiella pneumoniae IHMA599644 (VIM-1), 95% growth inhibition
[12] = Serratia marcescens CL5741 (IMP-1), 95% growth inhibition
[13] = fluorescence assay with CCF2-FA substrate
[14] = fluorescence assay with CCF2-FA substrate, read-out: VIM-1 IC50
[15] = IMP-1 enzyme, CCF2-FA fluorescence assay
[16] = NDM-1 enzyme, CCF2-FA fluorescence assay
[17] = VIM-1 enzyme, CCF2-FA fluorescence assay, read-out: VIM-1 IC50
[18] = Escherichia coli expressing NDM-1 (CLB30016), 95% growth inhibition
[19] = Klebsiella pneumoniae expressing VIM-1 (IHMA599644), 95% growth inhibition
[20] = Serratia marcescens expressing IMP-1 (CL5741), 95% growth inhibition
[21] = VIM-1 IC50, fluorescence assay with CCF2-FA substrate
[22] = CLB30016 (NDM-1), 95% inhibition of bacterial growth
[23] = IHMA599644 (VIM-1), 95% inhibition of bacterial growth
[24] = CL5741 (IMP-1), 95% inhibition of bacterial growth
[25] = VIM-1 IC50, VIM-1 enzyme, CCF2-FA substrate

Sequence of IMP-1 (P52699 whole entry, looked up): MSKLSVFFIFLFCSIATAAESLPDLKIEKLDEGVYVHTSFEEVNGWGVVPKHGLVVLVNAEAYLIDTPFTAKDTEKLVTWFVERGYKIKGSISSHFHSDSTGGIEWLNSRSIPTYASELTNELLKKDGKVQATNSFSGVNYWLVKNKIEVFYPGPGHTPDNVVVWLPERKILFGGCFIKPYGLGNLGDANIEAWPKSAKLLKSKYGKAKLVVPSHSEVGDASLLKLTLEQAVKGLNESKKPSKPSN
Sequence of NDM-1 (C7C422 whole entry, looked up, species assumed): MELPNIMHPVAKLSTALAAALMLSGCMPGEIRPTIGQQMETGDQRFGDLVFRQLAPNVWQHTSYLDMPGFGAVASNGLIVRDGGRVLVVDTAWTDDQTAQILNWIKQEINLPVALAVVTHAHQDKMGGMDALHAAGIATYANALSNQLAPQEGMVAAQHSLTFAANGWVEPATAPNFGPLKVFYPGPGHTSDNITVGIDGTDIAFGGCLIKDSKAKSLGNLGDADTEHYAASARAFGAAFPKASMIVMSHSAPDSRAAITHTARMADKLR

Structure (SMILES)	pIC50 [1, 7]	pIC50 [2, 8]	Escherichia coli MITC95 [4, 10] [µM]	Klebsiella pneumoniae MITC95 [5, 11] [µM]	Serratia marcescens MITC95 [6, 12] [µM]	pIC50 [1, 13]	pIC50 [2, 13]	pIC50 [1, 15]	pIC50 [2, 16]	pIC50 [3, 17]	Escherichia coli MITC95 [4, 18] [µM]	Klebsiella pneumoniae MITC95 [5, 19] [µM]	Serratia marcescens MITC95 [6, 20] [µM]	further results
NS(=O)(=O)c1c(CC2CCN(CCO)CC2)ccc(-c2ccc(C3CNC3)cc2)c1-c1nn[nH]n1 [Example 607, 3-[4-(azetidin-3-yl)phenyl]-6-[[1-(2-hydroxyethyl)-4-piperidyl]methyl]-2-(2H-tetrazol-5-yl)benzenesulfonamide]	7.37	7.95	1.563	1.563	3.125	–	–	–	–	–	–	–	–	pIC50 [3, 9]: 8.68
N=C(N)N1CCC(c2ccc(-c3cccc(S(N)(=O)=O)c3-c3nn[nH]n3)cc2)CC1 [Example 32, 4-(3′-Sulfamoyl-2′-(2H-tetrazol-5-yl)-[1,1′-biphenyl]-4-yl)piperidine-1-carboximidamide]	–	–	–	–	–	7.74	8.46	–	–	–	–	–	–	pIC50 [3, 14]: 7.11; Escherichia coli expressing NDM-1 (CLB 30016) MITC95 [4]: 0.5859 µM; Klebsiella pneumoniae expressing VIM-1 (IHMA 599644) MITC95 [5]: 25 µM; Serratia marcescens expressing IMP-1 (CL5741) MITC95 [6]: 0.7813 µM
NS(=O)(=O)c1c(C(F)(F)F)ccc(C2CC2)c1-c1nnn[nH]1 [Example 489, 3-cyclopropyl-2-(1H-tetrazol-5-yl)-6-(trifluoromethyl)benzenesulfonamide]	–	–	–	–	–	–	–	7.68	7.71	8.01	1.563	9.375	0.7813	–
NS(=O)(=O)c1c(C(F)(F)F)ccc(-c2cccc3c[n+]([O-])ccc23)c1-c1nn[nH]n1 [Example 516, 5-(3-Sulfamoyl-2-(2H-tetrazol-5-yl)-4-(trifluoromethyl)phenyl)isoquinoline 2-oxide]	7.90	8.62	6.25	6.25	0.7813	–	–	–	–	–	–	–	–	pIC50 [3, 9]: 9.56
NS(=O)(=O)c1nccc(N2CCC(c3ncc[nH]3)CC2)c1-c1nnn[nH]1 [Example 240, 4-[4-(1H-imidazol-2-yl)piperidin-1-yl]-3-(1H-tetrazol-5-yl)pyridine-2-sulfonamide]	–	–	–	–	–	5.47	6.38	–	–	–	–	–	–	pIC50 [3, 21]: 6.03; Escherichia coli expressing NDM-1 (CLB 30016) MITC95 [4]: 1.172 µM; Klebsiella pneumoniae expressing VIM-1 (IHMA 599644) MITC95 [5]: 25 µM; Serratia marcescens expressing IMP-1 (CL5741) MITC95 [6]: 37.5 µM
NS(=O)(=O)c1nccc(N2CCC(c3cnc4n3CCCC4)CC2)c1-c1nnn[nH]1 [Example 225, 4-[4-(5,6,7,8-tetrahydroimidazo[1,2-a]pyridin-3-yl)piperidin-1-yl]-3-(1H-tetrazol-5-yl)pyridine-2-sulfonamide]	–	–	–	–	–	7.12	6.85	–	–	–	–	–	–	pIC50 [3, 14]: 6.65; Escherichia coli expressing NDM-1 (CLB 30016) MITC95 [4]: 9.375 µM; Klebsiella pneumoniae expressing VIM-1 (IHMA 599644) MITC95 [5]: 50 µM; Serratia marcescens expressing IMP-1 (CL5741) MITC95 [6]: 2.344 µM
NS(=O)(=O)c1c(C(F)(F)F)ccc([C@H]2CC[C@H](N)CC2)c1-c1nnn[nH]1 [Example 820, 3-((1r,4r)-4-aminocyclohexyl)-2-(1H-tetrazol-5-yl)-6-(trifluoromethyl)benzenesulfonamide]	–	–	–	–	–	7.40	7.87	–	–	–	–	–	–	pIC50 [3, 14]: 9.18; Escherichia coli MITC95 [4, 22]: 0.3906 µM; Klebsiella pneumoniae MITC95 [5, 23]: 0.7813 µM; Serratia marcescens MITC95 [6, 24]: 0.7813 µM
NC1CCC(c2ccc(-c3ccc(C4CCNCC4)cc3)c(-c3nn[nH]n3)c2S(N)(=O)=O)CC1 (stereo not drawn) [Example 459, 4-(4-aminocyclohexyl)-4′-(piperidin-4-yl)-2-(2H-tetrazol-5-yl)-[1,1′-biphenyl]-3-sulfonamide]	–	–	–	–	–	–	–	7.06	5.95	6.95	6.25	3.125	1.172	–
CNC1CCc2c(-c3ccc(C(F)(F)F)c(S(N)(=O)=O)c3-c3nnn[nH]3)cccc21 (stereo not drawn) [Example 726, 3-[1-(methylamino)-2,3-dihydro-1H-inden-4-yl]-2-(1H-tetrazol-5-yl)-6-(trifluoromethyl)benzenesulfon-amide]	7.23	7.57	12.5	3.125	25	–	–	–	–	–	–	–	–	pIC50 [3, 9]: 8.92
NS(=O)(=O)c1cccc(-c2cnc3n2CCCC3)c1-c1nnn[nH]1 [Example 419, 3-(5,6,7,8-tetrahydroimidazo[1,2-a]pyridin-3-yl)-2-(1H-tetrazol-5-yl)benzenesulfonamide]	–	–	–	–	–	–	–	5.98	7.28	6.33	0.25	25	25	–
Nc1n[nH]c2cc(-c3ccc(C(F)(F)F)c(S(N)(=O)=O)c3-c3nnn[nH]3)ccc12 [Example 477, 3-(3-amino-1H-indazol-6-yl)-2-(1H-tetrazol-5-yl)-6-(trifluoromethyl)benzenesulfonamide]	–	–	–	–	–	–	–	8.20	9.00	9.14	0.7813	6.25	0.5859	–
CN(C)CCCCNCc1ccc(-c2cccc(S(N)(=O)=O)c2-c2nnn[nH]2)cc1 [Example 356, 4′-({[4-(dimethylamino)butyl]amino}methyl)-2-(1H-tetrazol-5-yl)biphenyl-3-sulfonamide]	–	–	–	–	–	–	–	5.81	7.62	6.19	1.563	75	12.5	–
NS(=O)(=O)c1cccc(C2CCCc3ncccc32)c1-c1nn[nH]n1 (stereo not drawn) [Example 519, 3-(5,6,7,8-Tetrahydroquinolin-5-yl)-2-(2H-tetrazol-5-yl)benzenesulfonamide]	6.12	8.42	1.563	37.5	100	–	–	–	–	–	–	–	–	pIC50 [3, 25]: 7.61
NS(=O)(=O)c1c(C(F)(F)F)ccc(N2C[C@@H](O)[C@@H](O)C2)c1-c1nnn[nH]1 [Example 757, 3-[(3R,4S)-3,4-dihydroxypyrrolidin-1-yl]-2-(1H-tetrazol-5-yl)-6-(trifluoromethyl) benzenesulfonamide]	–	–	–	–	–	6.96	7.08	–	–	–	–	–	–	pIC50 [3, 21]: 6.45; Escherichia coli MITC95 [4, 22]: 12.5 µM; Klebsiella pneumoniae MITC95 [5, 23]: >200 µM; Serratia marcescens MITC95 [6, 24]: 25 µM
NC(=O)CCc1ccc(-c2cccc3sc(N)nc23)c(-c2nn[nH]n2)c1S(N)(=O)=O [Example 539, 3-(4-(2-Aminobenzo[d]thiazol-4-yl)-2-sulfamoyl-3-(2H-tetrazol-5-yl)phenyl)propanamide]	8.12	9.72	3.125	25	12.5	–	–	–	–	–	–	–	–	pIC50 [3, 9]: 8.73
NS(=O)(=O)c1c(C(F)(F)F)ccc(-c2cnn3ccccc23)c1-c1nnn[nH]1 [Example 710, 3-pyrazolo[1,5-a]pyridin-3-yl-2-(1H-tetrazol-5-yl)-6-(trifluoromethyl)benzenesulfon-amide]	8.68	9.05	6.25	12.5	6.25	–	–	–	–	–	–	–	–	pIC50 [3, 25]: 9.77
